According to patent publication US10239887B2, “Positive allosteric modulators of the muscarinic acetylcholine receptor M4” (Vanderbilt University, priority 2016, dated 2019):
Structures can show the parent of a compound that is named as a salt.

Target: T1, human mAChR M4 (Homo sapiens, UniProt P08173)
T1 sequence (P08173 1-479): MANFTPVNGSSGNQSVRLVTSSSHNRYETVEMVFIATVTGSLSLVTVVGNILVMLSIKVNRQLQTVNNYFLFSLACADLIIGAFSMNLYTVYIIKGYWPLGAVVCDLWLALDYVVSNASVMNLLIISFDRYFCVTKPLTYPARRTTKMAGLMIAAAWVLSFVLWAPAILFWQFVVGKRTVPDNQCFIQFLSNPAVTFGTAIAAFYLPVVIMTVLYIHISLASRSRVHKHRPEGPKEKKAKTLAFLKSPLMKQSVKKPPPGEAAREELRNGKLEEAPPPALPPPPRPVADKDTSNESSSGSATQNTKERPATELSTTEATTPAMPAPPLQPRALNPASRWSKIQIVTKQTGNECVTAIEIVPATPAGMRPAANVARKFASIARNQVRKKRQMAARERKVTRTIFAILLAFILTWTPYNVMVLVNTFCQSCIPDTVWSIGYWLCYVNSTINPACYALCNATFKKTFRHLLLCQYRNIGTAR
Assay: mAChR M4 cell-based functional assay (calcium flux), human M4
Conditions: for EC50: calcium flux

[1] = Human M4 EC50 (nM), Table 10, PAM activity with EC20 acetylcholine
[2] = Table 10, % ACh maximum at 30 μM
[3] = Human M4 EC50 (nM), Table 11, PAM activity with EC20 acetylcholine
[4] = Table 11, % ACh maximum at 30 μM

SMILES	EC50 [1] [nM]	Emax [2] [%]	further results
CCNc1ncnc2c1oc1nc(C)c(Cl)c(C)c12 [Compound 287, 8-chloro-N-ethyl-7,9-dimethyl-pyrido[3′,2′:4,5]furo[3,2-d]pyrimidin-4-amine hydrochloride]	1250	40.6	
Cc1nnc2oc3c(NCc4ccc(C(C)(O)C(F)(F)F)cc4)ncnc3c2c1C (centres unmarked) [Compound 312, 2-[4-[[(3,4-dimethylpyrimido [4′,5′:4,5]furo[2,3-c]pyridazin-8-yl)amino]methyl]phenyl]-1,1,1-trifluoro-propan-2-ol]	909	70.2	
Cc1nnc2sc3c(NC4CN(c5ncc(Cl)cc5Cl)C4)ncnc3c2c1C [Compound 314, N-[1-(3,5-dichloro-2-pyridyl)azetidin-3-yl]-3,4-dimethyl-pyrimido [4′,5′:4,5]thieno[2,3-c] pyridazin-8-amine]			EC50 [3]: 1830 nM; Emax [4]: 71.5%
Cc1nnc2oc3c(NCc4cccc(C(C)(C)O)c4)ncnc3c2c1C [Compound 301, 2-[3-[[(3,4-dimethylpyrimido [4′,5′:4,5]furo[2,3-c]pyridazin-8-yl)amino]methyl]phenyl]propan-2-ol]		63.4	
Cc1nnc2sc3c(NCc4ccc(C5COC5)cc4)ncnc3c2c1C [Compound 374, 3,4-dimethyl-N-[[4-(oxetan-3-yl)phenyl]methyl] pyrimido[4′,5′:4,5]thieno [2,3-c]pyridazin-8-amine]			EC50 [3]: 45.2 nM; Emax [4]: 101%
Cc1cc(C)c2c(n1)oc1c(NC3CCC3)ncnc12 [Compound 293, N-cyclobutyl-7,9-dimethyl-pyrido[3′,2′:4,5]furo[3,2-d]pyrimidin-4-amine hydrochloride]	1590		Emax (%) [2]: 44.18%
Cc1c(Cl)cnc2sc3c(NCc4ccc(C(=O)N(C)C)cc4)ncnc3c12 [Compound 229, 4-[[(8-chloro-9-methyl-pyrido [3′,2′:4,5]thieno[3,2-d]pyrimidin-4-yl)amino]methyl]-N,N-dimethyl-benzamide]	1920	54.5	
Cc1nnc2sc3c(N4CC(Oc5cnccn5)C4)ncnc3c2c1C [Compound 350, 3,4-dimethyl-8-(3-pyrazin-2-yloxyazetidin-1-yl) pyrimido[4′,5′:4,5]thieno [2,3-c]pyridazine dihydrochloride]			EC50 [3]: 404 nM; Emax [4]: 78.1%
Cc1cc(C)c2c(n1)oc1c(NCc3cccc(C(C)(C)O)c3)ncnc12 [Compound 57, 2-[3-[[(7,9-dimethylpyrido[3′,2′:4,5]furod[3,2-]pyrimidin-4-yl)amino]methyl]phenyl] propan-2-ol]			Emax (Human M4, % ACh maximum at 30 μM): 23.7%; EC50 (Human M4 EC50, CHO-K1 hM4-Gqi5 cells, increase in EC20 acetylcholine response): 4270 nM
Cc1nnc2sc3c(NCc4ccc(F)c(C(=O)N[C@H](C)C(F)(F)F)c4)ncnc3c2c1C [Compound 182, 5-[[(3,4-dimethylpyrimido [4′,5′:4,5]thieno[2,3-c]pyridazin-8-yl)amino]methyl]-2-fluoro-N-[(1R)-2,2,2-trifluoro-1-methyl-ethyl]benzamide]	1170	97.2	
Cc1nnc2sc3c(NCc4ccc(C(C)(C)CO)cc4F)ncnc3c2c1C [Compound 368, 2-[4-[[(3,4-dimethylpyrimido[4′,5′:4,5]thieno[2,3-c]pyridazin-8-yl)amino]methyl]-3-fluoro-phenyl]-2-methyl-propan-1-ol]			EC50 [3]: 766 nM; Emax [4]: 98%
Cc1ncc(CN2CC3(CC(Nc4ncnc5c4sc4nnc(C)c(C)c45)C3)C2)cn1 [Compound 166, 3,4-dimethyl-N-[2-[(2-methylpyrimidin-5-yl)methyl]-2-azaspiro [3.3]heptan-6-yl]pyrimido [4′,5′:4,5]thieno[2,3-c] pyridazin-8-amine]	1210	34.7	
Cc1cc(O[C@H]2CN(c3ncnc4c3sc3nnc(C)c(C)c34)C[C@@H]2C)ccn1 [Compound 358, 3,4-dimethyl-8-[(3S,4R)-3-methyl-4-[(2-methyl-4-pyridyl)oxy]pyrrolidin-1-yl]pyrimido[4′,5′:4,5] thieno[2,3-c] pyridazine dihydrochloride]			EC50 [3]: 276 nM; Emax [4]: 76%
Cc1nc2sc3c(NC4CN(c5ncc(F)cn5)C4)ncnc3c2c(C)c1Cl [Compound 263, 8-chloro-N-[1-(5-fluoropyrimidin-2-yl)azetidin-3-yl]-7,9-dimethyl-pyrido[3′,2′:4,5] thieno[3,2-d]pyrimidin-4-amine hydrochloride]	9520	72.6	
Cc1nc2sc3c(NCc4ccc(-n5ccnc5)cc4)ncnc3c2c(C)c1Cl [Compound 268, 8-chloro-N-[(4-imidazol-1-ylphenyl)methyl]-7,9-dimethyl-pyrido[3′,2′:4,5] thieno[3,2-d]pyrimidin-4-amine dihydrochloride]	3170	31.3	
Cc1cc(O[C@@H]2CCN(c3ncnc4c3sc3nnc(C)c(C)c34)C2)ccn1 [Compound 338, 3,4-dimethyl-8-[(3R)-3-[(2-methyl-4-pyridyl)oxy]pyrrolidin-1-yl] pyrimido[4′,5′:4,5] thieno[2,3-c]pyridazine]			EC50 [3]: 73.4 nM; Emax [4]: 74.6%
Cc1nc2oc3c(NC4CC4c4ccc(F)c(F)c4)ncnc3c2c(C)c1Cl (centres unmarked) [Compound 247, 8-chloro-N-[2-(3,4-difluorophenyl)cyclopropyl]-7,9-dimethyl-pyrido [3′,2′:4,5]furo[3,2-d] pyrimidin-4-amine hydrochloride]	7840	70	
CCC(C)(O)c1ccc(CNc2ncnc3c2sc2nnc(C)c(C)c23)c(F)c1 (centres unmarked) [Compound 115, 2-[4-[[(3,4-dimethylpyrimido [4′,5′:4,5]thieno[2,3-c]pyridazin-8-yl)amino]methyl]-3-fluoro-phenyl]butan-2-ol]	916	72.3	
Cc1nnc2sc3c(NCc4ccc(-c5ccn(C)n5)cc4)ncnc3c2c1C [Compound 192, 3,4-dimethyl-N-[[4-(1-methylpyrazol-3-yl)phenyl]methyl]pyrimido [4′,5′:4,5]thieno[2,3-c] pyridazin-8-amine]	851	85.9	
Cc1cc(C)c2c(n1)sc1c(NCc3ccc(C(C)(C)O)cc3)ncnc12 [Compound 206, 2-[4-[[(7,9-dimethylpyrido [3′,2′:4,5]thieno[3,2-d]pyrimidin-4-yl)amino]methyl]phenyl]propan-2-ol]	910	75.8	

Further compounds by falling EC50 [1], results first:

EC50 [1] [nM]	Emax [2] [%]	SMILES	further results
748	95.2	Cc1nnc2sc3c(NCc4ccc(F)c(C(=O)NC(C)C)c4)ncnc3c2c1C [Compound 179, 5-[[(3,4-dimethylpyrimido [4′,5′:4,5]thieno[2,3-c]pyridazin-8-yl)amino]methyl]-2-fluoro-N-isopropyl-benzamide]	
579	100	COc1cc(F)c(CNc2ncnc3c2sc2nnc(C)c(C)c23)c(F)c1 [Compound 121, N-[(2,6-difluoro-4-methoxy-phenyl)methyl]-3,4-dimethyl-pyrimido [4′,5′:4,5]thieno[2,3-c] pyridazin-8-amine]	
420	105	Cc1c(Cl)nnc2sc3c(NC4CN(c5ncc(C(F)(F)F)cn5)C4)ncnc3c12 [Compound 214, 3-chloro-4-methyl-N-[1-[5-(trifluoromethyl)pyrimidin-2-yl]azetidin-3-yl] pyrimido[4′,5′:4,5] thieno[2,3-c]pyridazin-8-amine]	
207	78.8	Cc1nnc2sc3c(NCc4ccc(C(C)(C)O)cc4F)ncnc3c2c1C [Compound 107, 2-[4-[[(3,4-dimethylpyrimido [4′,5′:4,5]thieno[2,3-c]pyridazin-8-yl)amino]methyl]-3-fluoro-phenyl]propan-2-ol]	
174	88.1	Cc1nnc2sc3c(NCc4ccc(C(=O)NC(C)C)cc4)ncnc3c2c1C [Compound 155, 4-[[(3,4-dimethylpyrimido [4′,5′:4,5]thieno[2,3-c]pyridazin-8-yl)amino]methyl]-N-isopropyl-benzamide]	
135	53.3	Cc1nnc2sc3c(NCc4cccc(C5(O)CCC5)c4)ncnc3c2c1C [Compound 102, 1-[3-[[(3,4-dimethylpyrimido [4′,5′:4,5]thieno[2,3-c]pyridazin-8-yl)amino]methyl]phenyl] cyclobutanol]	
127	69.4	Cc1nnc2sc3c(NCc4ccc(C5(O)CCC5)cc4)ncnc3c2c1C [Compound 114, 1-[4-[[(3,4-dimethylpyrimido [4′,5′:4,5]thieno[2,3-c]pyridazin-8-yl)amino]methyl]phenyl]cyclobutanol]	
109	87.2	Cc1nnc2sc3c(NCc4ccc(C(=O)NC5CC6(COC6)C5)cc4)ncnc3c2c1C [Compound 154, 4-[[(3,4-dimethylpyrimido [4′,5′:4,5]thieno[2,3-c]pyridazin-8-yl)amino]methyl]-N-(2-oxaspiro [3.3]heptan-6-yl)benzamide]	
75.2	57.8	Cc1nnc2sc3c(NC4CN(c5ncc(OC(C)C)cn5)C4)ncnc3c2c1C [Compound 89, N-[1-(5-isopropoxypyrimidin-2-yl)azetidin-3-yl]-3,4-dimethyl-pyrimido [4′,5′:4,5]thieno[2,3-c] pyridazin-8-amine]	
44.6	65.1	Cc1c(Cl)nnc2sc3c(NC4CCC4)ncnc3c12 [Compound 210, 3-chloro-N-cyclobutyl-4-methyl-pyrimido [4′,5′:4,5]thieno[2,3-c] pyridazin-8-amine]	
